Legend:
Periodontitis = Periodontitis cases: sites with CPITN code 3+4 / code 4 pockets before and after the composition; type: in vivo, human
Description: As indicator of periodontal status pocket depth is used according to Treatment Need codes 3 and 4 in Community Periodontal Index—Treatment Needs (CPITN). This code is applied to every treated tooth or implant.
Periodontal pockets: shallow (Code 3: 4-5 mrn) and deep (Code 4: 6 mm or more).
(§1) Initial motivation and cleaning instruction, supragingival biofilm reduction by trimestrially repeated brushing in CHX solution 0.07 wt % for two weeks by the patient and tooth and pocket cleaning by ultrasonic scaling as well as covering exposed root dentine by adhesive fillings to hide protein coaggregational binding sites for anaerobic microbial species (A.a., P.g., T.d.) was administered. […]

[1] = tested on: Gingivitis, edema, mucosal inflammation; experiment: Clinical observation of oral inflammation, edema and regeneration (gingivitis, dentition difficilis, healing cap, inflamed extraction socket); type: in vivo, human
Experimental: as §1

[2] = Case 11, 4000 I.E. systemically 2 months
[3] = cases 10, 11, systemic application over 2 months

Structure (SMILES): C=C1CC[C@H](O)C/C1=C/C=C1\CCC[C@]2(C)[C@@H]([C@H](C)CCCC(C)C)CC[C@@H]12 [vit D3, vitamin D3]
- Code 4: severe (Periodontitis; Case 11, 18 sites/3, 4000 I.E. systemically 2 months, before 22): 22
- edema (Periodontitis; [2]): no edema
- pocket regeneration code 3 (Periodontitis; [2]): +33%
- sensitivity (Periodontitis; [2]): no sensitivity,
- CPITN Code 3 + 4 Nr. (Periodontitis; Case 11, Periodontitis, Periimplantitis, 18 sites/3, 4000 I.E. systemically 2 months, before 61): 38
- edema, inflammation and attachment loss (Periodontitis; [3]): stop of edema, inflammation and attachment loss
- regeneration in code 3 CPITN pockets (Periodontitis; [3]): some regeneration
- edema ([1]; Case 10, 4000 I.E. systemically 2 months): no edema
- pockets ([1]; Case 10, Gingivitis, Mc Calls edema, 4000 I.E. systemically 2 months): Shallow pockets,

— patent US20140072657A1, “NOVEL PHARMACEUTICAL FORMULATION” (priority 2011, published 2014)
